Consider one substance from patent publication US7067633B2, “Targeting cellular entry, cell survival, and pathogenicity by dynein light chain 1/PIN in human cells” (Board of Regents, The University of Texas System, priority 2003, dated 2006).

In this assay the test system is ZR75 cells. Briefly: Cell cycle progression by FACS analysis of serum-starved clones. The following applies: serum-starved stable clones. The format is cell-based, human. On the procedure:
FIGS. 5A–5C—Requirement of DLC1/PIN and Pak1 interaction in cell proliferation and survival. FIG. 5A: Equal number of cells ZR75R stable cells expressing DLC1/PIN wild type or DLC1/PIN^del88-89 mutant were plated and cell proliferation was determined by trypsinizing and counting cells using a coulter counter. Each colne was plated in triplicate and experiment was repeated twice with similar results. FIG. 5B: Cell cycle progression of DLC1/PIN wild type or mutant clones was analyzed by FACS analysis. […] For example, a smooth nuclear membrane was scored as nonapoptotic, as opposed to membrane blebbing or rupture, which was scored as apoptotic. Nuclei committed to enter mitosis were not scored in either of these groups because they were easily identified for their specific “pulverized” pattern of Lamin A/C staining. Ten randomly selected fields were analyzed for each condition. […]
DLC1/PIN regulation of cell growth and survival. […] After 10 h, apoptosis was quantitated by scoring the integrity of the nuclear membrane in cells expressing both RFP and myc tags to detect DLC/DLC1/PIN and Pak1 respectively (FIG. 5D).
(A flow cytometer gives signals particle by particle.)

Regarding “DLC1/PIN^del 88-89: DLC1/PIN mutant in which Ser88 and amino acid 89 were deleted”, the cell cycle distribution result was “significant increase in the cells in pre-Go phase”.
